Reference: patent US11591350B2, “Modulators of cystic fibrosis transmembrane conductance regulator” (Vertex Pharmaceuticals Incorporated, priority 2019, dated 2023)

Target: CFTR (Homo sapiens, UniProt P13569)
Experiment: Membrane potential dye assay (FLIPR Tetra) of CFTR-mediated chloride transport in enteroid cells
Format: cell-based
Conditions: human intestinal epithelial enteroid cells; test compound 18-24 hours; acute 10 μM forskolin and 300 nM Compound III
Description: Enteroid Cell Harvesting and Seeding
Membrane Potential Dye Assay

CFTR, sequence (P13569 with tags, fused parts or gaps DEL508-508): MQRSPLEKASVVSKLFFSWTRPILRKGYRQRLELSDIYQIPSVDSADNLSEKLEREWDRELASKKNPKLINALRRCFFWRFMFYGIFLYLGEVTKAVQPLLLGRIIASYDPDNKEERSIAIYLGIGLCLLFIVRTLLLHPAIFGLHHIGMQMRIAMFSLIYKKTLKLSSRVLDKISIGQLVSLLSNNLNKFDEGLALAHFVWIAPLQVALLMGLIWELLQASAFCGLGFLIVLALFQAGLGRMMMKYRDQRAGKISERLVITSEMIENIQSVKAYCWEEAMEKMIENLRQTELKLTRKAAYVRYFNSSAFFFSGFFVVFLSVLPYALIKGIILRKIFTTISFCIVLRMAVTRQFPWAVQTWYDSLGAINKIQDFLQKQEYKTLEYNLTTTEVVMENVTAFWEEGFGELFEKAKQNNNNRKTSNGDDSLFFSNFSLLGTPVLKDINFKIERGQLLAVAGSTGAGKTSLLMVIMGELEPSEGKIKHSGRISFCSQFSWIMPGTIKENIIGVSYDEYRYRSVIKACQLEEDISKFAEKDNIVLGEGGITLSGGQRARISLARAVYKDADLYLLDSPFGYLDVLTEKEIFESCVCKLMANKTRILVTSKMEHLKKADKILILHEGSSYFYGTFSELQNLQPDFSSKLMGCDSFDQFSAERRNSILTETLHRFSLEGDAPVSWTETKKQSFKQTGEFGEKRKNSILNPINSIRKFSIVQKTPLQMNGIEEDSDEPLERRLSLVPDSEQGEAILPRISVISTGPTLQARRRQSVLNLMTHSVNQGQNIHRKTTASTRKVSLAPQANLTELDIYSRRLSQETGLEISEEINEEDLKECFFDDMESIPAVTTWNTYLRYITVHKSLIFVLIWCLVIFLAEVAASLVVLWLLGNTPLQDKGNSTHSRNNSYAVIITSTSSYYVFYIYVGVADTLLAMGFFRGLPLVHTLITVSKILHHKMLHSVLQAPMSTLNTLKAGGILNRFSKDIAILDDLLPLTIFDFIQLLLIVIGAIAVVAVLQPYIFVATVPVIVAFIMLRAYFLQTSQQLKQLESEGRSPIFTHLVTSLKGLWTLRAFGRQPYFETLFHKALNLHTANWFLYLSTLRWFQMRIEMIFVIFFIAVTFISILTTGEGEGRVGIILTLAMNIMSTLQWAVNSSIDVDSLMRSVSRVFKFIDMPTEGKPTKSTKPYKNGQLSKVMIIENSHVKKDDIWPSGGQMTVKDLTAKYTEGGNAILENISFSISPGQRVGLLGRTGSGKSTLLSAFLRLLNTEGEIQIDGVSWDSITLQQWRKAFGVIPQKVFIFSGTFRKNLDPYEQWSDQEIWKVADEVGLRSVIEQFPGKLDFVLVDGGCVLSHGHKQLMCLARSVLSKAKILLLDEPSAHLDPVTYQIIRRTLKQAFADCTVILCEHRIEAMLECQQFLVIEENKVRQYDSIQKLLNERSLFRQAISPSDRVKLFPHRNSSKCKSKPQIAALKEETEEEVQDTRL

SMILES | EC50 [nM]
CC(C)(C)CC[Si](C)(C)c1ccn(-c2ccc3c(n2)N2C[C@@H](CCCNc4cccc(n4)S(=O)(=O)NC3=O)CC2(C)C)n1 [Compound (1-4), (14S)-8-{3-[(3,3-dimethylbutyl)dimethylsilyl]-1H-pyrazol-1-yl}-12,12-dimethyl-2λ^6-thia-3,9,11,18,23-pentaazatetracyclo[17.3.1.111,14.05,10]tetracosa-1(23),5(10),6,8,19,21-hexaene-2,2,4-trione] | < 1000
CC1(C)C[C@@H]2CCCNc3cccc(n3)S(=O)(=O)NC(=O)c3ccc(-n4ccc(OCCC5([Si](C)(C)C)CC5)n4)nc3N1C2 [(1-3)] | < 1000
CC1(C)C[C@@H]2CCCNc3cccc(n3)S(=O)(=O)NC(=O)c3ccc(-n4ccc(OC[Si](C)(C)C5(C(F)(F)F)CC5)n4)nc3N1C2 [Compound (1-1), (14S)-8-[3-({dimethyl[1-(trifluoromethyl)cyclopropyl]silyl}methoxy)-1H-pyrazol-1-yl]-12,12-dimethyl-2λ^6-thia-3,9,11,18,23-pentaazatetracyclo[17.3.1.111,14.05,10]tetracosa-1(22),5(10),6,8,19(23),20-hexaene-2,2,4-trione] | < 1000
CC1(C)C[C@@H]2CCCNc3cccc(n3)S(=O)(=O)NC(=O)c3ccc(-n4ccc(OCC[Si](C)(C)C)n4)nc3N1C2 [Compound (1-7), (14S)-12,12-dimethyl-8-{3-[2-(trimethylsilyl)ethoxy]-1H-pyrazol-1-yl}-2λ^6-thia-3,9,11,18,23-pentaazatetracyclo[17.3.1.111,14.05,10]tetracosa-1(22),5(10),6,8,19(23),20-hexaene-2,2,4-trione] | < 1000
CC1(C)C[C@@H]2CCCNc3cccc(n3)S(=O)(=O)NC(=O)c3ccc(-n4ccc(O[CH2][Ge]([CH3])([CH3])[CH3])n4)nc3N1C2 [Compound (2-1), (14S)-12,12-dimethyl-8-{3-[(trimethylgermyl)methoxy]-1H-pyrazol-1-yl}-2λ^6-thia-3,9,11,18,23-pentaazatetracyclo[17.3.1.111,14.05,10]tetracosa-1(23),5(10),6,8,19,21-hexaene-2,2,4-trione] | < 1000
CC1(C)C[C@@H]2CCCNc3cccc(n3)S(=O)(=O)NC(=O)c3ccc(-n4ccc(OC[Si](C)(C)C)n4)nc3N1C2 [Compound (1-8), (14S)-12,12-dimethyl-8-{3-[(trimethylsilyl)methoxy]-1H-pyrazol-1-yl}-2λ^6-thia-3,9,11,18,23-pentaazatetracyclo[17.3.1.111,14.05,10]tetracosa-1(22),5(10),6,8,19(23),20-hexaene-2,2,4-trione] | < 1000
CC1(C)C[C@@H]2CCCNc3cccc(n3)S(=O)(=O)NC(=O)c3ccc(-n4ccc(OCCC[Si](C)(C)C)n4)nc3N1C2 [Compound (1-6), (14S)-12,12-dimethyl-8-{3-[3-(trimethylsilyl)Propoxy]-1H-pyrazol-1-yl}-2λ^6-thia-3,9,11,18,23-pentaazatetracyclo[17.3.1.111,14.05,10]tetracosa-1(22),5(10),6,8,19(23),20-hexaene-2,2,4-trione] | < 1000
CC1(C)C[C@@H]2CCCNc3cccc(n3)S(=O)(=O)NC(=O)c3ccc(-n4ccc(OC[Si](C)(C)C(C)(C)C)n4)nc3N1C2 [Compound (1-2), (14S)-8-{3-[(tert-butyldimethylsilyl)methoxy]-1H-pyrazol-1-yl}-12,12-dimethyl-2λ^6-thia-3,9,11,18,23-pentaazatetracyclo[17.3.1.111,14.05,10]tetracosa-1(23),5(10),6,8,19,21-hexaene-2,2,4-trione] | < 1000
